Source: patent publication US9504858B2 (Colgate-Palmolive Company, priority 2012, dated 2016)

Legend:
[1] = Hydrolysis reaction: pH and turbidity of diluted ZLC solutions before and after aging; format: physicochemical; details: for pH after aging / turbidity after aging (NTU): 37° C. oven over 5 hours
Experimental: A 185 mg/ml ZLC solution is prepared and diluted several-fold and aged in a 37° C. oven over 5 hours for turbidity studies. […] Turbidity of the solutions is measured using a nephelometer, results being given in nephelometric turbidity units (NTU).

[2] = system: bacterial culture; assay: Zone of inhibition test; format: cell-based; details: 20 μl on filter paper discs, TSA plates, 20 hours at 37° C.
Experimental: A zone of inhibition test is conducted on several materials: zinc oxide, lysine hydrochloride, and ZLC. The method involves making a lawn of freshly prepared bacterial culture on TSA (trypticase soy agar) plates. Sterile filter paper discs are seeded with 20 μl of test sample (supernatant or mixture). Sample-coated filter paper discs are air dried and applied onto the bacterial lawn on TSA plates. Plates are incubated for 20 hours at 37° C.

[3] = biological target: Bovine Serum Albumin (BSA) (Bos taurus, UniProt P02769); assay: Flocculation of ZLC in the presence of protein (BSA); format: physicochemical; details: ZLC 15 mg/ml, 5 hours, 37° C.
Experimental: Turbidity and pH of solutions are measured 5 hours after the mixtures were placed in a 37° C. oven, and the results are shown in Table 3: […]

[4] = sample 3: 1% BSA, pH adjusted to 5.13

Chain of Bovine Serum Albumin (BSA) (P02769 25-607): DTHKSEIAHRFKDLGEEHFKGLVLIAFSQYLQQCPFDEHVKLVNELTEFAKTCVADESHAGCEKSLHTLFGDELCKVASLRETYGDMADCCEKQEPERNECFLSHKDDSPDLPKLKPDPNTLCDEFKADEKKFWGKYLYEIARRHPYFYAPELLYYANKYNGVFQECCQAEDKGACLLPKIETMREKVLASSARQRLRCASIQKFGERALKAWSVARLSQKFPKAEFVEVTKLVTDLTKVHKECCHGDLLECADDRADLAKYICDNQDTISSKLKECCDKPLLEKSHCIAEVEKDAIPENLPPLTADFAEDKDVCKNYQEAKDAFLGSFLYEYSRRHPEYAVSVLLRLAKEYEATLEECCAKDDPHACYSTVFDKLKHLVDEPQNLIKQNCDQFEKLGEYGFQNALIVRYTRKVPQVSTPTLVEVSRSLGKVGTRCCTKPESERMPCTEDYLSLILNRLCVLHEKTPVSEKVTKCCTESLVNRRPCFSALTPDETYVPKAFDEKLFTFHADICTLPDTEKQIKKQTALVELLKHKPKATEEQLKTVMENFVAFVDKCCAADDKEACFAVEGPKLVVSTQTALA

For [Zn(C6H14N2O2)2Cl]^+Cl^− [ZLC], the “initial pH” value ([1]; 5.78 mg/ml) was 8.0, the “initial turbidity (NTU)” value ([1]; 5.78 mg/ml) was 40.1 NTU and the pH after aging ([1]; 5.78 mg/ml) was 8.0. For the same substance, the “turbidity after aging (NTU)” value ([1]; 5.78 mg/ml) was greater than 1000 NTU, the “initial pH” value ([1]; 11.56 mg/ml) was 7.8 and the “initial turbidity (NTU)” value ([1]; 11.56 mg/ml) was 14.8 NTU. The pH after aging ([1]; 11.56 mg/ml) was 7.8, the “turbidity after aging (NTU)” value ([1]; 11.56 mg/ml) was greater than 1000 NTU and the “initial pH” value ([1]; 23.125 mg/ml) was 7.7. The “initial turbidity (NTU)” value ([1]; 23.125 mg/ml) was 0.70 NTU, the pH after aging ([1]; 23.125 mg/ml) was 7.7 and the “turbidity after aging (NTU)” value ([1]; 23.125 mg/ml) was 247.4 NTU. For the same substance, the “initial pH” value ([1]; 46.25 mg/ml) was 7.4, the “initial turbidity (NTU)” value ([1]; 46.25 mg/ml) was 1.48 NTU and the pH after aging ([1]; 46.25 mg/ml) was 7.4. The “turbidity after aging (NTU)” value ([1]; 46.25 mg/ml) was 2.81 NTU, the “initial pH” value ([1]; 92.5 mg/ml) was 7.0 and the “initial turbidity (NTU)” value ([1]; 92.5 mg/ml) was 2.78 NTU. The pH after aging ([1]; 92.5 mg/ml) was 7.0, the “turbidity after aging (NTU)” value ([1]; 92.5 mg/ml) was 2.60 NTU and the “initial pH” value ([1]; 185 mg/ml) was 6.8. The “initial turbidity (NTU)” value ([1]; 185 mg/ml) was 4.75 NTU, the pH after aging ([1]; 185 mg/ml) was 6.8 and the “turbidity after aging (NTU)” value ([1]; 185 mg/ml) was 4.08 NTU. For the same substance, the “behaviour of the complex upon dilution” value ([1]; 8×, 16× and 32× diluted solutions, precipitates identified by PXRD) was “disassociates upon dilution, with consequent precipitation of zinc oxide”, the “antibacterial activity (zone of inhibition)” value [2] was “better antibacterial activity than zinc oxide alone or lysine hydrochloride alone” and the “Turbidity(NTU)” value ([3]; sample 1: DI water, 0% BSA) was 357 NTU. The pH ([3]; sample 1: DI water, 0% BSA) was 7.98, the “Turbidity(NTU)” value ([3]; sample 2: 1% BSA, pH 7.17) was greater than 1000 NTU and the pH ([3]; sample 2: 1% BSA, pH 7.17) was 8.16. For the same substance, the “Turbidity(NTU)” value [3, 4] was greater than 1000 NTU and the pH [3, 4] was 7.97.
